Measured values taken from patent US11273165B2, “Applications for estradiol in preparing anti-small cell lung cancer and/or ovarian cancer and/or osteosarcoma products” (SHANGHAI JIAO TONG UNIVERSITY, priority 2015, dated 2022).

Assays:
Type in all cases: cell-based
[1] = test system: SNU-475 human hepatoma cells; assay: CellTiter-Glo luminescent cell viability assay, SNU-475 human hepatoma cells; conditions: 72 hours
U2OS osteosarcoma cells = assay: CellTiter-Glo luminescent cell viability assay, U2OS osteosarcoma cells; conditions: Homo sapiens, 72 hours
Procedure: (§1) In example 1, CELLTITER-GLO was used to test estradiol against small-cell lung cancer and/or ovarian cancer and/or osteosarcoma epithelial cell carcinoma 1. Cell plating • a) The complete medium required for each cell was prepared. • b) Before beginning the experiment, the name of the drug screened for the cells marked on the 100 mm petri dish was confirmed as well as information such as the passage time and number of passages to ensure the experiment was error-free. • c) Refer to steps d) through i) for procedures for adherent cells; refer to steps j) through l) for procedures for suspension cells. • d) When using aseptic technique, a vacuum pump was used to draw the cell culture medium. • e) 2 ml of a sterile PBS solution was used to rinse the cell surface, and a vacuum pump was used to aspirate the PBS waste. • f) A 1 ml 0.25% (w/v) Trypsin-0.038% (w/v) EDTA solution was gently added to the petri dish for cell digestion, and after gently mixing several times, the solution covered the cell surfaces. […]

[2] = test system: NCI-H82 small-cell lung cancer cells; assay: CellTiter-Glo luminescent cell viability assay, NCI-H82 small-cell lung cancer cells; conditions: Homo sapiens, 72 hours
Procedure: as §1

[3] = test system: NCI-H810 human hepatoma cells; assay: CellTiter-Glo luminescent cell viability assay, NCI-H810 human hepatoma cells; conditions: 72 hours
Procedure: as §1

[4] = test system: SKOV-3 ovarian cancer cells; assay: CellTiter-Glo luminescent cell viability assay, SKOV-3 ovarian cancer cells; conditions: Homo sapiens, 72 hours
Procedure: as §1

IC50 [1]: ≥ 100 µM | IC50 (U2OS osteosarcoma cells): 32.7 µM | EC50 (U2OS osteosarcoma cells; read-out: EC50 (estradiol sensitivity to osteosarcoma, FIG. 4)): 28.8 µM | IC50 [2]: 16.3 µM | EC50 ([2]; read-out: EC50 (estradiol sensitivity to small-cell lung cancer, FIG. 3)): 15.3 µM | IC50 [3]: ≥ 100 µM | IC50 ([4]; SK-OV-3, SKOV-3 ovarian cancer cells): 3.07 µM | EC50 ([4]; SK-OV-3, ovarian cancer cells, read-out: EC50 (estradiol sensitivity to ovarian cancer, FIG. 2)): 3.03 µM
SMILES: C[C@]12CC[C@@H]3c4ccc(O)cc4CC[C@H]3[C@@H]1CC[C@@H]2O [estradiol]
